From patent US10793542B2, “Hetroarylamine compounds for modulating the hedgehog pathway and preparing method and uses thereof” (DEVELOPMENT CENTER FOR BIOTECHNOLOGY, priority 2016, dated 2020)

Assays:
Format in all cases: cell-based
Smo wild type = molecular target: T1, Smo wild type (Homo sapiens, UniProt Q99835); experiment: Reporter assay of C3H10T1/2-Gli-Luc cells transfected with wild-type Smo, without SAG; conditions: C3H10T1/2 cells transfected with pLPCX-SMO, no SAG, 48 hr; read-out: Inhibition of C3H10T1/2-Gli-Luc-Smo-WT [IC50
T1 construct: expressed in transfected cells; host or cells: C3H10T1/2 cells (ATCC CCL-226), transient transfection with pLPCX-SMO
Experimental: (§1) A transient transfection system with a Smo wild type or a Smo D473H mutant was also used for compound screening. For the SMO inhibition experiments, cells were transfected with an additional 500 ng/well of wild-type or D473H-mutant type SMO construct (pLPCX-SMO or pLPCX-SMO-D473H). After 24 h, transfected cells were collected by trypsin treatment and re-plated in 96-well plates in an RPMI medium containing 0.5% FBS with a density of 1.5×10^4 cells/well. Compounds were dissolved in DMSO with serial dilutions and were then added to the assay plate. The assay plates were incubated at 37° C. for 48 hr.
(§2) Firefly luciferase and Renilla luciferase activity was determined using the Dual-Glo Luciferase reporter assay system (Promega) with a Victor3 plate reader (PerkinElmer Life Sciences). Firefly luciferase readings were normalized to Renilla luciferase to correct for transfection efficiency. Luminance reading for the C3H10T1/2-Gli-Luc assay was normalized based on DMSO control with SAG stimulation (100% pathway activity) and without SAG stimulation (0% pathway activity). IC50 values, defined as the inflection point of the logistic curve, were determined by nonlinear regression using the Prism 5 software (GraphPad).
(§3) The reporter assay of C3H10T1/2-Gli-Luc cells transfected with a wild-type, D473H mutant Smo mutant was carried out with the same protocol but without SAG stimulation. Luminance reading for the SMO inhibition experiments assay was normalized based on DMSO control (100% of the pathway activity) and a known Smo antagonist (ALLO-2 at 10 μM, 0% of the pathway activity).

[1] = system: hedgehog pathway (pGL3-7xGli-Luciferase reporter in C3H10T1/2 cells); experiment: Transient transfection of C3H10T1/2 and Gli-Luc reporter assay with SAG stimulation; conditions: Mus musculus, C3H 10T1/2, SAG 20 nM, 48 hr, read-out: Inhibition of Gli-Luc expression [IC50
Experimental: A cell-based screen for inhibitors of the hedgehog pathway was performed using a transient transfection system in C3H10T1/2 cells with pGL3-7xGli-Luciferase reporter plasmids C3H10T1/2 cells (ATCC, cat.#CCL-226) were seeded into 6-well plates at 8×10^4 cells/well in a BME medium containing 10% heat-inactivated FBS. Cells were transfected the next morning with 500 ng/well pGL3-7xGli-Luciferase reporter plasmids and 100 ng/well pRL-TK Renilla luciferase reporter plasmids (Promega)using GeneJuice transfection reagent (Novagene). After 24 h, transfected cells were collected by trypsin treatment and re-plated in 96-well plates in an RPMI medium containing 0.5% FBS with a density of 1.5×10^4 cells/well. Compounds were dissolved in DMSO with serial dilutions and were then added to the assay plate. SAG (Hh-Ag 1.3) (Santa Cruz) was added to the assay plated for a final concentration 20 nM. The assay plates were incubated at 37° C. for 48 hr.
as §2

Smo D473H mutant = molecular target: T2, Smo D473H mutant (Homo sapiens, UniProt Q99835, D473H); experiment: Reporter assay of C3H10T1/2-Gli-Luc cells transfected with Smo D473H mutant, without SAG; conditions: C3H10T1/2 cells transfected with pLPCX-SMO-D473H, no SAG, 48 hr; read-out: Inhibition of C3H10T1/2-Gli-Luc-Smo-D473H [IC50
T2 construct: expressed in transfected cells; host or cells: C3H10T1/2 cells (ATCC CCL-226), transient transfection with pLPCX-SMO-D473H
Experimental: as §1, §2, §3

T2 sequence (Q99835 28-787 D473H): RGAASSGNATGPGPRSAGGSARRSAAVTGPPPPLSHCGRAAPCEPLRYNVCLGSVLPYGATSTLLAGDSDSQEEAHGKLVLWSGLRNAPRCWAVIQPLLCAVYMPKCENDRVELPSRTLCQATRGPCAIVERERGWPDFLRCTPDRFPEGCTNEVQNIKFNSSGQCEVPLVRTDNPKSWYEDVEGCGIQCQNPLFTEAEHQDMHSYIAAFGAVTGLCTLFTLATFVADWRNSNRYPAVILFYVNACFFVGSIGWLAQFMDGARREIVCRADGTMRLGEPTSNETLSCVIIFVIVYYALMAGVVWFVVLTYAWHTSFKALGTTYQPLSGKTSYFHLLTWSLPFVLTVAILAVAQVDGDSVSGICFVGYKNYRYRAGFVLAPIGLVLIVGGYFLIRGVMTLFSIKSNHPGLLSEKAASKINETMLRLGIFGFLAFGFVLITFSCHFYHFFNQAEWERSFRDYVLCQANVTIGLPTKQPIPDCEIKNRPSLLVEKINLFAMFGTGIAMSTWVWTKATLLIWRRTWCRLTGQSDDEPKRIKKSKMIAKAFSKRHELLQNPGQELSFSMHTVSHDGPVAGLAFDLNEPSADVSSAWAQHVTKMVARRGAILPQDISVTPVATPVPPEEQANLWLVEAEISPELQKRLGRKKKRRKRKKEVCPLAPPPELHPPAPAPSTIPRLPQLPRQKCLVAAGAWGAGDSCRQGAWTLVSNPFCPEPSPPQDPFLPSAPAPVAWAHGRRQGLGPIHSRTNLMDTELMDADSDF
T1 sequence (Q99835 28-787): as the sequence (Q99835 28-787 D473H) above, with H446D counted along it

Structure (SMILES)	IC50 (Smo wild type)	IC50 [1]	IC50 (Smo D473H mutant)
CSc1cnc(Nc2ccc(C(=O)Nc3cc(CN4CCOCC4)ccc3C)cc2)nc1-c1ccc(OC(F)(F)F)cc1 [Compound 24, N-(2-Methyl-5-morpholin-4-ylmethyl-phenyl)-4-[5-methylsulfanyl-4-(4-trifluoromethoxy-phenyl)-pyrimidin-2-ylamino]-benzamide]	< 100 nM	< 100 nM	< 100 nM
COc1cccc(C)c1NC(=O)c1ccc(Nc2ncc(SC)c(-c3ccc(OC(F)(F)F)cc3)n2)cc1 [Compound 25, N-(2-Methoxy-6-methyl-phenyl)-4-[5-methylsulfanyl-4-(4-trifluoromethoxy-phenyl)-pyrimidin-2-ylamino]-benzamide]	100 to 1000 nM	100 to 1000 nM	100 to 1000 nM
CSc1cnc(Nc2ccc(C(=O)Nc3cc(CN4CCOCC4)ccc3C)cc2)nc1-c1ccncc1 [Compound 26, N-(2-Methyl-5-morpholin-4-ylmethyl-phenyl)-4-(5-methylsulfanyl-4-pyridin-4-yl-pyrimidin-2-ylamino)-benzamide]	< 100 nM	< 100 nM	100 to 1000 nM
CSc1cnc(Nc2ccc(C(=O)Nc3cc(CN4CCCCC4)ccc3C)cc2)nc1-c1ccc(C(F)(F)F)cc1 [Compound 28, N-(2-Methyl-5-piperidin-1-ylmethyl-phenyl)-4-[5-methylsulfanyl-4-(4-trifluoromethyl-phenyl)-pyrimidin-2-ylamino]-benzamide]	100 to 1000 nM	< 100 nM	100 to 1000 nM
CSc1cnc(Nc2ccc(C(=O)Nc3cc(CN4CCOCC4)ccc3C)cc2)nc1-c1ccc(F)cc1 [Compound 30, 4-[4-(4-Fluoro-phenyl)-5-methylsulfanyl-pyrimidin-2-ylamino]-N-(2-methyl-5-morpholin-4-ylmethyl-phenyl)-benzamide]	< 100 nM	< 100 nM	100 to 1000 nM
CSc1cnc(Nc2ccc(C(=O)Nc3cc(CN(C)C)ccc3C)cc2)nc1-c1ccc(C(F)(F)F)cc1 [Compound 32, N-(5-Dimethylaminomethyl-2-methyl-phenyl)-4-[5-methylsulfanyl-4-(4-trifluoromethyl-phenyl)-pyrimidin-2-ylamino]-benzamide]	100 to 1000 nM	100 to 1000 nM	100 to 1000 nM
CSc1cnc(Nc2ccc(C(=O)Nc3cc(CN4CCN(C)CC4)ccc3C)cc2)nc1-c1ccc(C#N)cc1 [Compound 35, 4-[4-(4-Cyano-phenyl)-5-methylsulfanyl-pyrimidin-2-ylamino]-N-[2-methyl-5-(4-methyl-piperazin-1-ylmethyl)-phenyl]-benzamide]	< 100 nM	< 100 nM	100 to 1000 nM
CSc1cnc(Nc2ccc(C(=O)Nc3cc(CN4CCN(C)CC4)ccc3C)cc2)nc1-c1ccc(OC(F)(F)F)cc1 [Compound 37, N-[2-Methyl-5-(4-methyl-piperazin-1-ylmethyl)-phenyl]-4-[5-methylsulfanyl-4-(4-trifluoromethoxy-phenyl)-pyrimidin-2-ylamino]-benzamide]	< 100 nM	< 100 nM	100 to 1000 nM
COc1cnc(Nc2ccc(C(=O)Nc3cc(CN4CCOCC4)ccc3C)cc2)nc1-c1ccc(OC(F)(F)F)cc1 [Compound 38, 4-[5-Methoxy-4-(4-trifluoromethoxy-phenyl)-pyrimidin-2-ylamino]-N-(2-methyl-5-morpholin-4-ylmethyl-phenyl)-benzamide]	< 100 nM	< 100 nM	< 100 nM
CSc1cnc(Nc2ccc(C(=O)Nc3cc(CN4CCOCC4)ccc3C)cc2F)nc1-c1ccc(OC(F)(F)F)cc1 [Compound 40, 3-Fluoro-N-(2-methyl-5-morpholin-4-ylmethyl-phenyl)-4-[5-methylsulfanyl-4-(4-trifluoromethoxy-phenyl)-pyrimidin-2-ylamino]-benzamide]	< 100 nM	< 100 nM	< 100 nM
CSc1cnc(Nc2ccc(C(=O)Nc3cc(CN4CCCCC4)ccc3C)cc2F)nc1-c1ccc(F)cc1 [Compound 42, 3-Fluoro-4-[4-(4-fluoro-phenyl)-5-methylsulfanyl-pyrimidin-2-ylamino]-N-(2-methyl-5-piperidin-1-ylmethyl-phenyl)-benzamide]	< 100 nM	< 100 nM	100 to 1000 nM
CSc1cnc(Nc2ccc(C(=O)Nc3cccc(CN4CCOCC4)c3)cc2)nc1-c1ccc(F)cc1 [Compound 43, 4-[4-(4-Fluoro-phenyl)-5-methylsulfanyl-pyrimidin-2-ylamino]-N-(3-morpholin-4-ylmethyl-phenyl)-benzamide]	< 100 nM	< 100 nM	100 to 1000 nM

Results, then the compound that gave them:

IC50 (Smo wild type)	IC50 [1]	IC50 (Smo D473H mutant)	Structure (SMILES)
< 100 nM	< 100 nM	100 to 1000 nM	CSc1cnc(Nc2ccc(C(=O)Nc3cc(CN4CCOCC4)ccc3C)cc2)nc1-c1ccc(C(F)(F)F)cc1 [Compound 27, N-(2-Methyl-5-morpholin-4-ylmethyl-phenyl)-4-[5-methylsulfanyl-4-(4-tiifluoromethyl-phenyl)-pyrimidin-2-ylamino]-benzamide]
100 to 1000 nM	100 to 1000 nM	100 to 1000 nM	CSc1cnc(Nc2ccc(C(=O)Nc3c(C)cccc3C)cc2)nc1-c1ccc(F)cc1 [Compound 29, N-(2,6-Dimethyl-phenyl)-4-[4-(4-fluoro-phenyl)-5-methylsulfanyl-pyrimidin-2-ylamino]-benzamide]
< 100 nM	< 100 nM	100 to 1000 nM	CSc1cnc(Nc2ccc(C(=O)Nc3cc(CN(C)C)ccc3C)cc2)nc1-c1ccc(F)cc1 [Compound 31, N-(5-Dimethylaminomethyl-2-methyl-phenyl)-4-[4-(4-fluoro-phenyl)-5-methylsulfanyl-pyrimidin-2-ylamino]-benzamide]
< 100 nM	< 100 nM	100 to 1000 nM	CSc1cnc(Nc2ccc(C(=O)Nc3cc(CN4CCOCC4)ccc3C)cc2)nc1-c1ccc(C#N)cc1 [Compound 33, 4-[4-(4-Cyano-phenyl)-5-methylsulfanyl-pyrimidin-2-ylamino]-N-(2-methyl-5-morpholin-4-ylmethyl-phenyl)-benzamide]
100 to 1000 nM	< 100 nM	100 to 1000 nM	CSc1cnc(Nc2ccc(C(=O)Nc3cc(CN(C)C)ccc3C)cc2)nc1-c1ccc(C#N)cc1 [Compound 34, 4-[4-(4-Cyano-phenyl)-5-methylsulfanyl-pyrimidin-2-ylamino]-N-(5-dimethylaminomethyl-2-methyl-phenyl)-benzamide]
< 100 nM	< 100 nM	100 to 1000 nM	CSc1cnc(Nc2ccc(C(=O)Nc3cc(CN4CCN(C)CC4)ccc3C)cc2)nc1-c1ccc(F)cc1 [Compound 36, 4-[4-(4-Fluoro-phenyl)-5-methylsulfanyl-pyrimidin-2-ylamino]-N-[2-methyl-5-(4-methyl-piperazin-1-ylmethyl)-phenyl]-benzamide]
100 to 1000 nM	100 to 1000 nM	100 to 1000 nM	CSc1cnc(Nc2ccc(C(=O)Nc3cc(CN4CCOCC4)ccc3C)cc2)nc1-c1cnn(C)c1 [Compound 39, N-(2-Methyl-5-morpholin-4-ylmethyl-phenyl)-4-[4-(1-methyl-1H-pyrazol-4-yl)-5-methylsulfanyl-pyrimidin-2-ylamino]-benzamide]
< 100 nM	< 100 nM	100 to 1000 nM	CSc1cnc(Nc2ccc(C(=O)Nc3cc(CN4CCOCC4)ccc3C)cc2F)nc1-c1ccc(F)cc1 [Compound 41, 3-Fluoro-4-[4-(4-fluoro-phenyl)-5-methylsulfanyl-pyrimidin-2-ylamino]-N-(2-methyl-5-morpholin-4-ylmethyl-phenyl)-benzamide]
< 100 nM	< 100 nM	< 100 nM	CSc1cnc(Nc2ccc(C(=O)Nc3cccc(CN4CCOCC4)c3)cc2F)nc1-c1ccc(OC(F)(F)F)cc1 [Compound 44, 3-Fluoro-4-[5-methylsulfanyl-4-(4-trifluoromethoxy-phenyl)-pyrimidin-2-ylamino]-N-(3-morpholin-4-ylmethyl-phenyl)-benzamide]
